Test results published in the supplement of paper PMC8671470.
± gives the standard deviation of the averaged measurements.

What was measured:
Conditions in all cases: 72 h
NOMO-1 [1] = tested on: NOMO-1
How it was run: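 Each of fifteen myeloid leukaemia cell lines was seeded in RPMI 1640 at a density titrated to its linear growth range. The cells were incubated for 72 h at 37 °C and 5% CO2 with compounds at five tenfold doses from 1 to 10,000 nM, in duplicate. After ATP luminescence was normalised to vehicle and to a positive control at 10 µM, four-parameter log-logistic curves were fitted. These curves gave the IC50.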

MOLM-13 = test: cell viability (% survival relative to DMSO control, bortezomib = 0%); higher = less cytotoxic
How it was run: (§1)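 After 72 h at 37 °C with 5% CO2, cell viability in 384-well plates was measured by CellTiter-Glo luminescence. The plates held compounds pre-printed at 1, 10, 100, 1000 or 10000 nM in duplicate, and cells from 10 AML and 5 CML lines seeded at densities titrated to linear growth. Percent survival is the duplicate mean, normalised to vehicle as 100% and a 10 µM positive control as 0%.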

BV-173 = test: as above
How it was run: as §1

K-562 = test: as above
How it was run: as §1

NOMO-1 [2] = test: as above
How it was run: as §1

MV4-11 = test: as above
How it was run: as §1

Mono-Mac-6 = test: as above
How it was run: as §1

SHI-1 = test: as above
How it was run: as §1

LAMA-84 = test: as above
How it was run: as §1

KCL-22 = test: as above
How it was run: as §1

ML-2 = test: as above
How it was run: as §1

KU-812 = test: as above
How it was run: as §1

HEL = test: as above
How it was run: as §1

THP-1 = test: as above
How it was run: as §1

KG-1 = test: as above
How it was run: as §1

HL-60 [3] = test: as above
How it was run: as §1

HL-60 [4] = test: cell viability (% survival relative to DMSO control); higher = less cytotoxic
How it was run: (§2)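 A rescreen of the full library used HL-60 cells in RPMI 1640 with 10% FBS on 384-well plates, run in duplicate at five tenfold concentrations (1–10,000 nM). Each screen included DMSO or 100 nM of one of three metabolic inhibitors and ran 72 h at 37 °C, 5% CO2. CellTiter-Glo viability was scaled between DMSO and 10 μM proteasome-inhibitor wells. Any area under the curve comes from four-parameter log-logistic fits with drc and PharmacoGx.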

HL-60 [5] = test: area under dose-response curve (viability, 1 nM-10 uM) (fraction (0-1)); higher = more sensitive
How it was run: as §2

Fc1ccc(CNc2ncnc3ccc(F)cc23)cc1 [Spautin 1]
IC50 (cell viability) (NOMO-1 [1]): > 10 µM
cell viability (MOLM-13; 1 nM): 93.1%
cell viability (MOLM-13; 10 nM): 89.7%
cell viability (MOLM-13; 100 nM): 122%
cell viability (MOLM-13; 1000 nM): 108%
cell viability (MOLM-13; 10000 nM): 50.9%
cell viability (BV-173; 1 nM): 98.3%
cell viability (BV-173; 10 nM): 96.8%
cell viability (BV-173; 100 nM): 110%
cell viability (BV-173; 1000 nM): 79.7%
cell viability (BV-173; 10000 nM): 35.1%
cell viability (K-562; 1 nM): 103%
cell viability (K-562; 10 nM): 97%
cell viability (K-562; 100 nM): 100%
cell viability (K-562; 1000 nM): 69.8%
cell viability (K-562; 10000 nM): 16.9%
cell viability (NOMO-1 [2]; 1 nM): 103%
cell viability (NOMO-1 [2]; 10 nM): 102%
cell viability (NOMO-1 [2]; 100 nM): 110%
cell viability (NOMO-1 [2]; 1000 nM): 97.3%
cell viability (NOMO-1 [2]; 10000 nM): 77.1%
cell viability (MV4-11; 1 nM): 98.8%
cell viability (MV4-11; 10 nM): 92.4%
cell viability (MV4-11; 100 nM): 102%
cell viability (MV4-11; 1000 nM): 64.7%
cell viability (MV4-11; 10000 nM): 33%
cell viability (Mono-Mac-6; 1 nM): 109%
cell viability (Mono-Mac-6; 10 nM): 96.1%
cell viability (Mono-Mac-6; 100 nM): 119%
cell viability (Mono-Mac-6; 1000 nM): 106%
cell viability (Mono-Mac-6; 10000 nM): 59%
cell viability (SHI-1; 1 nM): 113%
cell viability (SHI-1; 10 nM): 100%
cell viability (SHI-1; 100 nM): 106%
cell viability (SHI-1; 1000 nM): 95.9%
cell viability (SHI-1; 10000 nM): 62.2%
cell viability (LAMA-84; 1 nM): 103%
cell viability (LAMA-84; 10 nM): 103%
cell viability (LAMA-84; 100 nM): 93.5%
cell viability (LAMA-84; 1000 nM): 66.4%
cell viability (LAMA-84; 10000 nM): 26.7%
cell viability (KCL-22; 1 nM): 112%
cell viability (KCL-22; 10 nM): 113%
cell viability (KCL-22; 100 nM): 108%
cell viability (KCL-22; 1000 nM): 88.6%
cell viability (KCL-22; 10000 nM): 61.9%
cell viability (ML-2; 1 nM): 108%
cell viability (ML-2; 10 nM): 84.7%
cell viability (ML-2; 100 nM): 97%
cell viability (ML-2; 1000 nM): 87.9%
cell viability (ML-2; 10000 nM): 63.2%
cell viability (KU-812; 1 nM): 96.8%
cell viability (KU-812; 10 nM): 96.3%
cell viability (KU-812; 100 nM): 94.5%
cell viability (KU-812; 1000 nM): 62.3%
cell viability (KU-812; 10000 nM): 12.6%
cell viability (HEL; 1 nM): 91.3%
cell viability (HEL; 10 nM): 98.3%
cell viability (HEL; 100 nM): 94.1%
cell viability (HEL; 1000 nM): 89.4%
cell viability (HEL; 10000 nM): 47.9%
cell viability (THP-1; 1 nM): 95.5%
cell viability (THP-1; 10 nM): 103%
cell viability (THP-1; 100 nM): 103%
cell viability (THP-1; 1000 nM): 106%
cell viability (THP-1; 10000 nM): 79.1%
cell viability (KG-1; 1 nM): 108%
cell viability (KG-1; 10 nM): 98.5%
cell viability (KG-1; 100 nM): 103%
cell viability (KG-1; 1000 nM): 66.8%
cell viability (KG-1; 10000 nM): 32.6%
cell viability (HL-60 [3]; 1 nM): 105%
cell viability (HL-60 [3]; 10 nM): 102%
cell viability (HL-60 [3]; 100 nM): 110%
cell viability (HL-60 [3]; 1000 nM): 117%
cell viability (HL-60 [3]; 10000 nM): 47.4%
cell viability (HL-60 [4]; 0.001 µM, co-treatment: AZD3965 100 nM): 78.7 ± 29%
cell viability (HL-60 [4]; 0.001 µM, co-treatment: DMSO vehicle): 98.11 ± 0.4%
cell viability (HL-60 [4]; 0.001 µM, co-treatment: GSK2194069 100 nM): 91.31 ± 0.4%
cell viability (HL-60 [4]; 0.001 µM, co-treatment: pictilisib 100 nM): 100 ± 2.8%
cell viability (HL-60 [4]; 0.01 µM, co-treatment: AZD3965 100 nM): 99.98 ± 0.92%
cell viability (HL-60 [4]; 0.01 µM, co-treatment: DMSO vehicle): 97.89 ± 0.34%
cell viability (HL-60 [4]; 0.01 µM, co-treatment: GSK2194069 100 nM): 100 ± 4.9%
cell viability (HL-60 [4]; 0.01 µM, co-treatment: pictilisib 100 nM): 96.8 ± 2.8%
cell viability (HL-60 [4]; 0.1 µM, co-treatment: AZD3965 100 nM): 101 ± 1.4%
cell viability (HL-60 [4]; 0.1 µM, co-treatment: DMSO vehicle): 109 ± 1.2%
cell viability (HL-60 [4]; 0.1 µM, co-treatment: GSK2194069 100 nM): 104 ± 8.1%
cell viability (HL-60 [4]; 0.1 µM, co-treatment: pictilisib 100 nM): 108 ± 16%
cell viability (HL-60 [4]; 1 µM, co-treatment: AZD3965 100 nM): 103 ± 2.2%
cell viability (HL-60 [4]; 1 µM, co-treatment: DMSO vehicle): 96.7 ± 8%
cell viability (HL-60 [4]; 1 µM, co-treatment: GSK2194069 100 nM): 89.5 ± 8.1%
cell viability (HL-60 [4]; 1 µM, co-treatment: pictilisib 100 nM): 98.7 ± 6.6%
cell viability (HL-60 [4]; 10 µM, co-treatment: AZD3965 100 nM): 71.3 ± 9.4%
cell viability (HL-60 [4]; 10 µM, co-treatment: DMSO vehicle): 78.31 ± 0.12%
cell viability (HL-60 [4]; 10 µM, co-treatment: GSK2194069 100 nM): 58 ± 9.4%
cell viability (HL-60 [4]; 10 µM, co-treatment: pictilisib 100 nM): 80.4 ± 9.9%
area under dose-response curve (HL-60 [5]; co-treatment: AZD3965 100 nM): < 0.0301
area under dose-response curve (HL-60 [5]; co-treatment: DMSO vehicle): 0.0409
area under dose-response curve (HL-60 [5]; co-treatment: GSK2194069 100 nM): 0.0623
area under dose-response curve (HL-60 [5]; co-treatment: pictilisib 100 nM): 0.0324
